{"source": "patent US10000471B2", "about": "“Pyrazole P38 map kinase inhibitors” (Respivert Limited, priority 2010, dated 2018)", "key": {"A/J mice": {"test_system": "A/J mice", "assay": "Cigarette smoke model", "type": "in vivo", "conditions": "for inhibition of both macrophage and neutrophil accumulation into the BALF: animals previously exposed to cigarette smoke; for Cell numbers in BAL (% Inhibition), Macrophages / Cell numbers in BAL (% Inhibition), Neutrophils / Cell numbers in BAL, Macrophages / Cell numbers in BAL, Neutrophils: Table 8", "protocol": "A/J mice (males, 5 weeks old) were exposed to cigarette smoke (4% cigarette smoke, diluted with air) for 30 min/day for 11 days using a Tobacco Smoke Inhalation Experiment System for small animals (Model SIS-CS; Sibata Scientific Technology, Tokyo, Japan). Test substances were administered intra-nasally (35 μL of solution in 50% DMSO/PBS) twice daily for 3 days after the final cigarette smoke exposure. At 12 hr after the last dosing, each of the animals was anesthetized, the trachea cannulated and bronchoalveolar lavage fluid (BALF) was collected. The numbers of alveolar macrophages and neutrophils were determined by FACS analysis (EPICS® ALTRA II, Beckman Coulter, Inc., Fullerton, Calif., USA) using anti-mouse MOMA2 antibody (macrophage) or anti-mouse 7/4 antibody (neutrophil).\nThe data for cell numbers are shown as the mean±SEM."}, "[1]": {"test_system": "TNFα release in d-U937 cells", "assay": "LPS-induced TNFα release in d-U937 cells", "type": "cell-based, human", "conditions": "Homo sapiens, dU937, relative to 10 μg/mL BIRB796, read-out: LPS/TNFα REC50 d-U937", "method_in_brief": "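Sandwich ELISA of TNFα and IL-8 in supernatants after 4 hr 0.1 μg/mL LPS (E. coli O111:B4) challenge of U937 cells differentiated with PMA 100 ng/ml for 48–72 hr, compound added 2 hr beforehand. IL-8: IC50 from inhibition versus vehicle; TNFα: REC50 from inhibition as percentage of 10 μg/mL BIRB796 effect.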"}, "Balb/c mice": {"test_system": "Balb/c mice", "assay": "LPS-induced neutrophil accumulation in mice", "type": "in vivo", "conditions": "for Neutrophil numbers in BAL / Neutrophil numbers in BAL (% inhibition): intra tracheal", "protocol": "LPS-Induced Neutrophil Accumulation in Mice\nNon-fasted Balb/c mice were dosed by the intra tracheal route with either vehicle, or the test substance at the indicated times (within the range 2-8 hr) before stimulation of the inflammatory response by application of an LPS challenge. At T=0, mice were placed into an exposure chamber and exposed to LPS. After a further 8 hr the animals were anesthetized, their tracheas cannulated and BALF extracted by infusing and then withdrawing from their lungs 1.0 mL of PBS via the tracheal catheter. Total and differential white cell counts in the BALF samples were measured using a Neubaur haemocytometer. Cytospin smears of the BALF samples were prepared by centrifugation at 200 rpm for 5 min at RT and stained using a DiffQuik stain system (Dade Behring). Cells were counted using oil immersion microscopy."}, "[2]": {"conditions": "Cigarette smoke + 0.064 μg/mL, intra-nasal twice daily 3 days"}, "[3]": {"conditions": "Table 7, Cigarette smoke + 8.0 μg/mL"}, "[4]": {"conditions": "Table 7, Cigarette smoke + 40 μg/mL"}, "[5]": {"conditions": "Table 7, Cigarette smoke + 200 μg/mL"}, "[6]": {"conditions": "Table 6, 0.2 mg/mL, 8 h pre-dose"}}}
{"smiles": "CNC(=O)Nc1cc(Oc2ccc(NC(=O)Nc3cc(C(C)(C)C)nn3-c3ccc(OC)cc3)c(Cl)c2Cl)ccn1", "note": "[Example 9, N-Methyl-N′-4-(4-(3-(3-tert-butyl-1-p-anisyl-1H-pyrazol-5-yl)ureido)-2,3-dichlorophen-1-yloxy)pyridin-2-ylurea]", "values": [{"measurement": "Cell numbers in BAL (% Inhibition), Macrophage", "setting": "A/J mice; [2]", "value": 19, "unit": "%"}, {"measurement": "Cell numbers in BAL (% Inhibition), Neutrophil", "setting": "A/J mice; [2]", "value": 3, "unit": "%"}, {"measurement": "Cell numbers in BAL, Macrophage", "setting": "A/J mice; [2]", "value": "16.2 ± 1.7 × 10^4/mL"}, {"measurement": "Cell numbers in BAL, Neutrophil", "setting": "A/J mice; [2]", "value": "17.7 ± 2.5 × 10^4/mL"}, {"measurement": "Cell numbers in BAL (% Inhibition), Macrophage", "setting": "A/J mice; Cigarette smoke + 0.32 μg/mL", "value": 17, "unit": "%"}, {"measurement": "Cell numbers in BAL (% Inhibition), Neutrophil", "setting": "A/J mice; Cigarette smoke + 0.32 μg/mL", "value": 16, "unit": "%"}, {"measurement": "Cell numbers in BAL, Macrophage", "setting": "A/J mice; Cigarette smoke + 0.32 μg/mL", "value": "16.5 ± 2.4 × 10^4/mL"}, {"measurement": "Cell numbers in BAL, Neutrophil", "setting": "A/J mice; Cigarette smoke + 0.32 μg/mL", "value": "15.5 ± 0.47 × 10^4/mL"}, {"measurement": "Cell numbers in BAL (% Inhibition), Macrophage", "setting": "A/J mice; Cigarette smoke + 1.6 μg/mL", "value": 19, "unit": "%"}, {"measurement": "Cell numbers in BAL (% Inhibition), Neutrophil", "setting": "A/J mice; Cigarette smoke + 1.6 μg/mL", "value": 21, "unit": "%"}, {"measurement": "Cell numbers in BAL, Macrophage", "setting": "A/J mice; Cigarette smoke + 1.6 μg/mL", "value": "16.2 ± 1.3 × 10^4/mL"}, {"measurement": "Cell numbers in BAL, Neutrophil", "setting": "A/J mice; Cigarette smoke + 1.6 μg/mL", "value": "14.7 ± 1.6 × 10^4/mL"}, {"measurement": "Cell numbers in BAL (% Inhibition), Macrophage", "setting": "A/J mice; [3]", "value": 39, "unit": "%"}, {"measurement": "Cell numbers in BAL (% Inhibition), Neutrophil", "setting": "A/J mice; [3]", "value": 29, "unit": "%"}, {"measurement": "Cell numbers in BAL, Macrophage", "setting": "A/J mice; [3]", "value": "13.1 ± 1.2 × 10^4/mL"}, {"measurement": "Cell numbers in BAL, Neutrophil", "setting": "A/J mice; [3]", "value": "13.4 ± 1.4 × 10^4/mL"}, {"measurement": "Cell numbers in BAL (% Inhibition), Macrophage", "setting": "A/J mice; [4]", "value": 61, "unit": "%"}, {"measurement": "Cell numbers in BAL (% Inhibition), Neutrophil", "setting": "A/J mice; [4]", "value": 42, "unit": "%"}, {"measurement": "Cell numbers in BAL, Macrophage", "setting": "A/J mice; [4]", "value": "9.9 ± 1.6 × 10^4/mL"}, {"measurement": "Cell numbers in BAL, Neutrophil", "setting": "A/J mice; [4]", "value": "11.2 ± 2.1 × 10^4/mL"}, {"measurement": "Cell numbers in BAL (% Inhibition), Macrophage", "setting": "A/J mice; [5]", "value": 85, "unit": "%"}, {"measurement": "Cell numbers in BAL (% Inhibition), Neutrophil", "setting": "A/J mice; [5]", "value": 72, "unit": "%"}, {"measurement": "Cell numbers in BAL, Macrophage", "setting": "A/J mice; [5]", "value": "6.1 ± 0.93 × 10^4/mL"}, {"measurement": "Cell numbers in BAL, Neutrophil", "setting": "A/J mice; [5]", "value": "6.3 ± 0.79 × 10^4/mL"}, {"measurement": "inhibition of both macrophage and neutrophil accumulation into the BALF", "setting": "A/J mice", "value": "dose-dependent inhibition"}, {"measurement": "EC50", "setting": "[1]", "value": 200, "unit": "pM"}, {"measurement": "Neutrophil numbers in BAL", "setting": "Balb/c mice; 0.05 mg/mL, 2 hr pre-dose", "value": "14.98 ± 2.25 × 10^5/mL"}, {"measurement": "Neutrophil numbers in BAL (% inhibition)", "setting": "Balb/c mice; 0.05 mg/mL, 2 hr pre-dose", "value": 11, "unit": "%"}, {"measurement": "Neutrophil numbers in BAL", "setting": "Balb/c mice; 0.2 mg/mL, 2 hr pre-dose", "value": "8.75 ± 1.38 × 10^5/mL"}, {"measurement": "Neutrophil numbers in BAL (% inhibition)", "setting": "Balb/c mice; 0.2 mg/mL, 2 hr pre-dose", "value": 48, "unit": "%"}, {"measurement": "Neutrophil numbers in BAL", "setting": "Balb/c mice; 0.2 mg/mL, 8 h pre-dose", "value": "13.44 ± 2.03 × 10^5/mL"}, {"measurement": "Neutrophil numbers in BAL (% inhibition)", "setting": "Balb/c mice; 0.2 mg/mL, 8 h pre-dose", "value": 20, "unit": "%"}, {"measurement": "Neutrophil numbers in BAL", "setting": "Balb/c mice; 1.0 mg/mL, 2 hr pre-dose", "value": "5.80 ± 1.18 × 10^5/mL"}, {"measurement": "Neutrophil numbers in BAL (% inhibition)", "setting": "Balb/c mice; 1.0 mg/mL, 2 hr pre-dose", "value": 66, "unit": "%"}, {"measurement": "inhibition of neutrophil accumulation into the BALF", "setting": "Balb/c mice; administered 2 hr prior to LPS challenge", "value": "dose-dependent inhibition"}, {"measurement": "effects of treatment on neutrophil accumulation into the BALF", "setting": "Balb/c mice; dosed 8 hr prior to the endotoxin challenge", "value": "sustained and still detectable"}]}
{"smiles": "COc1ccc(-n2nc(C(C)(C)C)cc2NC(=O)Nc2ccc(Oc3ccnc(NC(=O)N4CCCC4)c3)c(Cl)c2Cl)cc1", "note": "[Example 76, N-(4-(4-(3-(3-(tert-butyl)-1-(4-methoxyphenyl)-1H-pyrazol-5-yl)ureido)-2,3-dichlorophenoxy)pyridin-2-yl)pyrrolidine-1-carboxamide]", "values": [{"measurement": "Cell numbers in BAL (% Inhibition), Macrophages", "setting": "A/J mice; Cigarette smoke + 8.0 μg/mL", "value": 57, "unit": "%"}, {"measurement": "Cell numbers in BAL (% Inhibition), Neutrophils", "setting": "A/J mice; Cigarette smoke + 8.0 μg/mL", "value": 52, "unit": "%"}, {"measurement": "Cell numbers in BAL, Macrophages", "setting": "A/J mice; Cigarette smoke + 8.0 μg/mL", "value": "8.5 ± 0.35 × 10^4/mL"}, {"measurement": "Cell numbers in BAL, Neutrophils", "setting": "A/J mice; Cigarette smoke + 8.0 μg/mL", "value": "9.6 ± 0.48 × 10^4/mL"}, {"measurement": "Cell numbers in BAL (% Inhibition), Macrophages", "setting": "A/J mice; Cigarette smoke + 40 μg/mL", "value": 84, "unit": "%"}, {"measurement": "Cell numbers in BAL (% Inhibition), Neutrophils", "setting": "A/J mice; Cigarette smoke + 40 μg/mL", "value": 66, "unit": "%"}, {"measurement": "Cell numbers in BAL, Macrophages", "setting": "A/J mice; Cigarette smoke + 40 μg/mL", "value": "5.3 ± 0.36 × 10^4/mL"}, {"measurement": "Cell numbers in BAL, Neutrophils", "setting": "A/J mice; Cigarette smoke + 40 μg/mL", "value": "7.4 ± 0.76 × 10^4/mL"}, {"measurement": "Cell numbers in BAL (% Inhibition), Macrophages", "setting": "A/J mice; Cigarette smoke + 200 μg/mL", "value": 97, "unit": "%"}, {"measurement": "Cell numbers in BAL (% Inhibition), Neutrophils", "setting": "A/J mice; Cigarette smoke + 200 μg/mL", "value": 86, "unit": "%"}, {"measurement": "Cell numbers in BAL, Macrophages", "setting": "A/J mice; Cigarette smoke + 200 μg/mL", "value": "3.6 ± 0.39 × 10^4/mL"}, {"measurement": "Cell numbers in BAL, Neutrophils", "setting": "A/J mice; Cigarette smoke + 200 μg/mL", "value": "4.0 ± 0.49 × 10^4/mL"}, {"measurement": "inhibition of both macrophage and neutrophil accumulation into the BALF", "setting": "A/J mice", "value": "dose-dependent inhibition"}, {"measurement": "EC50", "setting": "[1]", "value": 900, "unit": "pM"}, {"measurement": "% inhibition of Influx", "setting": "Balb/c mice; [6]", "value": 8, "unit": "%"}, {"measurement": "Neutrophil numbers in BAL 8 h pre-dose", "setting": "Balb/c mice; [6]", "value": "12.94 ± 2.41 × 10^5/mL"}, {"measurement": "inhibitory effects versus neutrophil influx into the BALF", "setting": "Balb/c mice; dosed 8 hr before the inflammatory stimulus", "value": "inhibitory effects"}]}
